Measurements taken from patent publication US20180369203A1, “METHODS OF TREATING CANCER BY ADMINISTERING A MEK INHIBITOR IN COMBINATION WITH A PROTEASOME INHIBITOR” (The Jackson Laboratory, priority 2015, published 2018).
Like-named read-outs stand apart in the source and are kept apart here. Peptide text beside a SMILES is read from it. * marks the point of attachment. Cbz = O=C(OCc1ccccc1)*

What was measured:
[1] = tested on: V5-TOR1AIP2, V5-RPL3, V5-RPL15; experiment: Levels and ubiquitination of V5-tagged proteins in HEK293T cells; format: cell-based; details: 500 nM MG132 co-treated with 20 nM AZD6244, 8 hr
c-MYC, RPL15, RPL3 = experiment: Endogenous c-MYC, RPL15 and RPL3 proteins in A2058 cells; format: cell-based, human; details: 20 nM AZD6244 co-treated with 500 nM MG132
Experimental: (A) GFP and GFP-GR plasmids were co-transfected into HEK293T cells followed by treatments with 20 nM AZD6244, 20 μM U0126, or 200 nM 17-DMAG for 4 hr. (B) GFP-GR plasmids were co-transfected into HEK293T cells with HA-Ub-K48 plasmids, which encode a mutant ubiquitin that can be conjugated to protein substrates only via lysine 48. Following treatments with 20 nM AZD6244 or 200 nM 17-DMAG for 4 hr, GFP-GR proteins were precipitated and ubiquitination was detected using anti-HA antibodies. (C) Denatured firefly luciferases were incubated with lysates of A2058 cells treated with DMSO or 20 nM AZD6244 (mean±SD, n=4, ANOVA). (D) A2058 cells were treated with 20 nM AZD6244, and ubiquitinated proteins were detected in both detergent-soluble and -insoluble fractions using Lys48-specific ubiquitin antibodies. (E) A2058 cells stably expressing LacZ or HSF1^S326D were treated with 20 nM AZD6244 for 8 hr. (F) C57BL/6J mice were i.p. injected with DMSO or AZD6244 three times a week for 2 weeks. S: spleen; K: kidney; L: liver. (G) Experimental procedures of MS-based quantitation of ubiquitinated peptides, two technical replicates per treatment. […] (Q) Endogenous RPL15 and RPL3 proteins were detected in A2058 cells treated with 20 nM AZD6244 alone or co-treated with 500 nM MG132. (R) Endogenous RPL15 and RPL3 proteins were detected in A2058 cells stably expressing LacZ or HSF1^S326D with AZD6244 treatment. […]

MEK1 = MEK1 (Homo sapiens, UniProt Q02750); details: 100 ng GST-MEK1, 400 ng His-HSF1, RT
Experimental: (§1) Co-expressed GFP proteins served as internal controls. […] See also FIG. 10.
(§2) Samples were boiled for 5 min to stop reactions.

HSF1 [2] = experiment: ELISA-based HSF1-DNA binding assay, NIH3T3 nuclear proteins; format: cell-based, mouse; details: NIH3T3, immediately after HS; 20 μM U0126 or 20 nM AZD6244 for 3 hr
Experimental: (§3) (A) NIH3T3 cells were treated with HS at 43° C. for 30 min, 10 μM tubastatin A for 5 hr, 40 μM VER155008 for 1 hr, 500 nM MG132 for 1 hr, 200 nM 17-DMAG for 1 hr, and 2.5 mM azetidine for 15 min (B) The dual ELK1 reporter system, comprising a serum response element (SRE)-driven secreted embryonic alkaline phosphatase (SEAP) plasmid and a CMV-driven Gaussia luciferase (GLuc) plasmid, was transfected into HEK293T cells. After 24 hr, cells were treatments as in (A) and recovered overnight before measuring reporter activities (mean±SD, n=6, ANOVA). (C and D) NIH3T3 cells were treated with 20 μM U0126 or 20 nM AZD6244 for 3 hr followed by HS and 4-hr recovery. mRNA levels were quantitated by qRT-PCR (mean±SD, n=3, Student's t-test). (E) Immediately after HS, nuclear proteins of NIH3T3 cells treated as in (C) were extracted to measure HSF1-DNA binding by an ELISA-based assay (mean±SD, n=3, ANOVA). (F) HEK293T cells were transfected with dual HSF1 reporter plasmids, a heat-shock element (HSE)-driven SEAP plasmid and a CMV-GLuc plasmid. […] (G) HEK293T cells were treated with different inhibitors overnight. […] After 24 hr, cells were heat shocked at 43° C. for 30 min followed by overnight recovery (mean±SD, n=3, ANOVA). (L)-(O) HEK293T cells were transfected with siRNAs for 48 hr followed by transfection with dual HSF1 reporter plasmids for 24 hr before HS (mean±SD, n=6, ANOVA). […]

HSF1 Ser326 [3] = details: NIH3T3; 20 μM U0126 for 3 hrs, then heat shock 43° C. 30 mins
Experimental: NIH3T3 cells were treated with 20 μM U0126 for 3 hrs followed by heat shock at 43° C. for 30 mins HSF1 Ser326 phosphorylation was detected by immunoblotting.
Whole-cell protein extracts were prepared in cold cell-lysis buffer (100 mM NaCl, 30 mM Tris-HCl pH 7.6, 1% Triton X-100, 30 mM NaF, 1 mM EDTA, 1 mM sodium orthovanadate, and Halt™ protease inhibitor cocktail from Thermo Scientific). Proteins were separated on SDS-PAGE gels and transferred to nitrocellulose membranes. Primary antibodies were applied in wash buffer overnight at 4° C. Peroxidase-conjugated secondary antibodies were applied at room temperature for 1 hr, and signals were visualized by SuperSignal West chemiluminescent substrate (Thermo Fisher Scientific), followed by exposure to films.

HSF1 Ser326 [4] = experiment: HSF1 Ser326 phosphorylation by immunoblotting in HEK293T cells; format: cell-based; details: overnight, 20 μM U0126, 20 nM AZD6244, 1 μM FR180204 or 100 nM Sch772984
Experimental: This figure is related to FIG. 3. (A) Validation of phospho-HSF1 Ser326 antibodies. […] (B) MEK blockade impairs HSF1 Ser326 phosphorylation. […] (D-E) S326A mutation impairs HSF1 nuclear translocation. […] (F) Acute MEK depletion diminishes HSF1 proteins. […] HSF1 proteins were detected by immunoblotting. (G) ERK-mediated HSF1 Ser307 phosphorylation depends on MEK. […] Levels of phosphor-HSF1 Ser307 were measured by immunoblotting. (H) HSF1 Ser326 phosphorylation inhibits Ser307 phosphorylation.

Hsp genes = experiment: qRT-PCR of heat-shock-induced Hsp mRNA in NIH3T3 cells; format: cell-based, mouse; details: 20 μM U0126 or 20 nM AZD6244 for 3 hr, then HS and 4-hr recovery
Experimental: (A) NIH3T3 cells were treated with HS at 43° C. for 30 min, 10 μM tubastatin A for 5 hr, 40 μM VER155008 for 1 hr, 500 nM MG132 for 1 hr, 200 nM 17-DMAG for 1 hr, and 2.5 mM azetidine for 15 min (B) The dual ELK1 reporter system, comprising a serum response element (SRE)-driven secreted embryonic alkaline phosphatase (SEAP) plasmid and a CMV-driven Gaussia luciferase (GLuc) plasmid, was transfected into HEK293T cells. After 24 hr, cells were treatments as in (A) and recovered overnight before measuring reporter activities (mean±SD, n=6, ANOVA). (C and D) NIH3T3 cells were treated with 20 μM U0126 or 20 nM AZD6244 for 3 hr followed by HS and 4-hr recovery. mRNA levels were quantitated by qRT-PCR (mean±SD, n=3, Student's t-test). (E) Immediately after HS, nuclear proteins of NIH3T3 cells treated as in (C) were extracted to measure HSF1-DNA binding by an ELISA-based assay (mean±SD, n=3, ANOVA). […]
Total RNAs were extracted using RNA STAT-60 reagent (Tel-Test, Inc.), and RNAs were used for reverse transcription using a Verso cDNA Synthesis kit (Thermo Fisher Scientific). Equal amounts of cDNA were used for quantitative PCR reaction using a DyNAmo SYBR Green qPCR kit (Thermo Fisher Scientific). Signals were detected by an ABI 7500 Real-Time PCR System (Applied Biosystems). […]

HSF1 [5] = experiment: Dual HSF1 reporter assay (HSE-SEAP / CMV-GLuc) in HEK293T cells; format: cell-based; details: 20 μM U0126, 20 nM AZD6244, 1 μM FR180204 or 100 nM Sch772984
Experimental: as §3, with “ANOVA).” for “ANOVA). (L)-(O) HEK293T cells were transfected with siRNAs for 48 hr followed by transfection with dual HSF1 reporter plasmids for 24 hr before HS (mean±SD, n=6, ANOVA).”
FIGS. 8A-H illustrate that MEK and ERK inversely regulate the PSR. […] Cell viability was measured by a Guava EasyCyte™ flow cytometer using Guava ViaCount™ reagents (mean±SD, n=5, Student's t test). […] Levels of ERK1 and ERK2 mRNAs were quantitated in HEK293T cells transfected with ERK1-targeting siRNAs by qRT-PCR (mean±SD, n=3, ANOVA). […] Levels of ERK2 and ERK1 mRNAs were quantitated in HEK293T cells transfected with ERK2-targeting siRNAs by qRT-PCR (mean±SD, n=3, ANOVA).
Plasmids were transfected with TurboFect transfection reagent (Thermo Scientific). SEAP and luciferase activities in culture supernatants were quantitated using a Ziva® Ultra SEAP Plus Detection Kit (Jaden BioScience) and a Gaussia Luciferase Glow Assay Kit (Thermo Scientific), respectively. Luminescence signals were measured by a VICTORS Multilabel plate reader (PerkinElmer).

[6] = tested on: ERK complexes precipitated from HEK293T cells; experiment: In vitro kinase assay with immunoprecipitated ERK complexes; format: biochemical
Experimental: as §1, §2

Chain of MEK1 (Q02750 whole entry): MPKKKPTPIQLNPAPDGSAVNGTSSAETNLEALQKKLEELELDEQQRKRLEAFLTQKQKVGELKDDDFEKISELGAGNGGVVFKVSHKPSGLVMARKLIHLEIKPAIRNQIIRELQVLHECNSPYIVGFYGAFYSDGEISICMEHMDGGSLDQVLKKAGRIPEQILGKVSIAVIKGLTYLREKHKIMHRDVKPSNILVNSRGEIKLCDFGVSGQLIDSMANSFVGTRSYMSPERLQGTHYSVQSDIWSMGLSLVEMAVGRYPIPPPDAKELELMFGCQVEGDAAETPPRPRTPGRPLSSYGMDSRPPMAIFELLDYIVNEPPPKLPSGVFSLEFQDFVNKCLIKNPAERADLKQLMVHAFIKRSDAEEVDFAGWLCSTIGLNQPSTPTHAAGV

CC(C)C[C@@H](C=O)NC(=O)[C@H](CC(C)C)NC(=O)[C@H](CC(C)C)NC(=O)OCc1ccccc1 [MG132] (Cbz-Leu-Leu-Leu-aldehyde)
V5-RPL15 depletion by AZD6244 [1]: prevented
depletions of endogenous RPL15 and RPL3 by AZD6244 (c-MYC, RPL15, RPL3): prevented

N#CC(=C(/N)Sc1ccccc1N)/C(C#N)=C(\N)Sc1ccccc1N [U0126]
HSF1 Ser326 phosphorylation by recombinant MEK1 (MEK1): blocked
DNA-binding capacity of HSF1 (HSF1 [2]): impaired
HSF1 Ser326 phosphorylation (HSF1 Ser326 [3]): impaired
HSF1 Ser326 phosphorylation (HSF1 Ser326 [4]): impairs
HS-induced transcription of Hsp genes (Hsp genes): impeded
transcriptional activation of HSF1 (HSF1 [5]): impaired
phosphorylation of recombinant ERK1 proteins by precipitated ERK complexes ([6]; 400 ng GST-ERK1): blocked
HSF1 Ser326 phosphorylation by precipitated ERK complexes ([6]; 400 ng His-HSF1): blocked
